Laboratory results from paper PMC6862250, “Lipophilicity Determination of Quaternary (Fluoro)Quinolones by Chromatographic and Theoretical Approaches” (International Journal of Molecular Sciences, 2019).

What was measured:
Assay type in all cases: physicochemical
[1] = RP-TLC lipophilicity, silica gel C8, methanol-water; details: for C 0: RP-TLC silica gel C8, C0 = −RM^0/b; for PC1: RP-TLC silica gel C8, first principal component of RM values, contains 83.57% of information; for mRM: RP-TLC silica gel C8, mean value of RM; for R M ^0: RP-TLC silica gel C8, methanol-water 30 to 70% (v/v), intercept of Soczewiński–Wachtmeister equation; for b: RP-TLC silica gel C8, slope of Soczewiński–Wachtmeister equation
Description: (§1) The ready-to-use TLC glass plates covered by octadecyl(C18)- and octyl(C8)-modified TLC silica layers were purchased from Merck (Darmstadt, Germany). Stock solutions (5 µL) of the analytes were spotted manually on the plates with the use of a micropipette from Brand (Wertheim, Germany). The mobile phases were prepared by mixing appropriate volumes of pure organic solvents and water (in step gradient by 10% (v/v)), in the following proportions: (a) methanol–water ranging from 30 to 70% (v/v), in the case of C8-bonded silica gel stationary phase; and (b) methanol–water ranging from 40 to 70% (v/v), in the case of C18-bonded silica gel stationary phase.
(§2) Before analysis, the chromatographic chamber (Twin Trough Chambers from CAMAG Philadelphia, USA) was saturated for 20 min. All TLC experiments were performed at room temperature (22 ± 2 °C). Chromatograms were developed using the ascending technique to a distance of 8 cm. The investigated substances were visualized under UV light at λ = 366 nm by CAMAG UV Lamp 4 and the Viewing Box 4 (Philadelphia, USA). […] The obtained retardation factors (RF) were collected in the Supplementary data sheets. The retention parameter, RM, was calculated for each compound according to the Bate-Smith and Westall formula: (7) RM=log(1/RF−1) and listed in Table S2. Next, the Soczewiński–Wachtmeister’s equation: RM = RM^0 + bC(8) was used in order to determine the basic lipophilic RP-TLC parameter RM^0 as well as commonly used hydrophobic constants m. Soczewiński–Wachtmeister’s equation presented a linear relationship between concentration of the organic solvent in mobile phase (C) and RM value. Moreover, mean value of RM was used for lipophilicity assessments.
(§3) Furthermore, C0 RP-TLC lipophilicity parameter, introduced by Bieganowska, has been calculated according to the formula:(9) C0=−RM^0/b.
(§4) The C0 parameter corresponds to the parameter φ0, previously proposed for the HPLC. This parameter relates to the concentration of the organic component in the mobile phase for which the distribution of the analyzed substance between the mobile and stationary phase is equal (1:1).
(§5) Also, the principal component analysis (PCA) was applied in order to extract information regarding the lipophilicity of solutes and formulate them as the first principal component (PC1). Calculation data matrixes included RM values of solutes for each modifier concentration in the mobile phase.

[2] = RP-TLC lipophilicity, silica gel C18, methanol-water; details: for C 0: RP-TLC silica gel C18, C0 = −RM^0/b; for PC1: RP-TLC silica gel C18, first principal component of RM values, contains 86.92% of information; for mRM: RP-TLC silica gel C18, mean value of RM; for R M ^0: RP-TLC silica gel C18, methanol-water 40 to 70% (v/v), intercept of Soczewiński–Wachtmeister equation; for b: RP-TLC silica gel C18, slope of Soczewiński–Wachtmeister equation
Description: as §1, §2, §3, §4, §5

[3] = MEKC lipophilicity (SDS micelles, pH 7.4); details: 50 mM SDS, HEPES/TRIS buffer pH 7.4, 25 °C
Description: All MEKC experiments were carried out with a P/ACE MDQ plus system (Sciex, Framingham, MA, USA) equipped with photodiode array detector (PDA) and controlled by 32 Karat software (version 10.2). The uncoated fused silica capillaries (50 µm i.d., Polymicro Technologies, West Yorkshire, UK) of 60 cm total length and 50.2 cm effective length were used. Prior to analysis, the capillary was rinsed with 0.1 M NaOH for 30 min, ultrapure water for 10 min, and background electrolyte (BGE) for 30 min. After each analysis, the capillary was conditioned with BGE for 2 min. The applied pressure for all rinsing operations was 345 kPa. The analytes were dissolved in BGE at concentration of 100 µg/mL with addition of quinine (micelles marker). As electroosmotic flow (EOF) marker, DMSO was used. The samples were hydrodynamically injected at 35 kPa for 5 s. The separations were performed by applying voltage of 20 kV with positive polarity and constant temperatures at 25 ± 0.1 °C. The BGE consisted of aqueous solution of 50 mM SDS and 120 mM HEPES /100 mM TRIS buffer of pH 7.4. The BGE was prepared each working day by dilution of stock solution. Detection was carried out at 200 and 280 nm with 8 Hz probing frequency. The logarithm of retention factor logk was calculated according to the equation introduced by Terabe and co-workers:(10) logkMEKC=log(tR−tEOF/tEOF(1−tR/tMC)) The established logk parameters are summarized in Table 2.

C 0 [1]	PC1 [1]	mRM [1]	R M ^0 [1]	b [1]	C 0 [2]	PC1 [2]	mRM [2]	R M ^0 [2]	b [2]	logk [3]	SMILES
1.04	−2.23	1.03	1.99	−1.92	1.21	0.72	0.96	1.65	−1.36	−0.104	CCn1cc(C(=O)O)c(=O)c2cc(F)c(N3CC[N+]4(CC3)CN3C(=N4)C(C(=O)O)=Cc4ccccc43)cc21.[Cl-] [Compound 1]
0.89	−2.22	1.01	2.31	−2.61	0.84	0.81	0.95	2.78	−3.31	−0.125	COc1c(N2CC[N+]3(CN4C(=N3)C(C(=O)O)=Cc3ccccc34)C(C)C2)c(F)cc2c(=O)c(C(=O)O)cn(C3CC3)c12.[Cl-] (stereo not drawn) [Compound 2]
0.86	−3.48	1.15	2.74	−3.17	0.88	0.34	1.02	2.75	−3.13	−0.070	CC1CN(c2c(F)c(N)c3c(=O)c(C(=O)O)cn(C4CC4)c3c2F)CC(C)[N+]12CN1C(=N2)C(C(=O)O)=Cc2ccccc21.[Cl-] (stereo not drawn) [Compound 3]
0.94	−0.58	0.84	1.79	−1.90	0.94	2.36	0.72	1.74	−1.85	−0.321	CC1=CC(C)=C(C(=O)O)C2=N[N+]3(CCN(c4cc5c(cc4F)c(=O)c(C(=O)O)cn5C4CC4)CC3)CN12.[Cl-] [Compound 4]
1.04	−1.69	0.98	1.90	−1.83	0.93	0.88	0.94	2.29	−2.45	−0.265	CCn1cc(C(=O)O)c(=O)c2cc(F)c(N3CC[N+]4(CN5C(=N4)C(C(=O)O)=Cc4ccccc45)C(C)C3)c(F)c21.[Cl-] (stereo not drawn) [Compound 5]
2.35	−1.73	1.04	1.32	−0.56	1.23	0.53	0.98	1.78	−1.45	–	CCn1cc(C(=O)O)c(=O)c2cnc(N3CC[N+]4(CC3)CN3C(=N4)C(C(=O)O)=Cc4ccccc43)nc21.[Cl-] [Compound 6]
1.23	−2.01	1.05	1.76	−1.43	1.17	0.48	0.99	1.87	−1.60	−0.239	CCn1cc(C(=O)O)c(=O)c2cc(F)c(N3CC[N+]4(CC3)CN3C(=N4)C(C(=O)O)=Cc4ccccc43)nc21.[Cl-] [Compound 7]
1.09	−1.26	0.93	1.71	−1.56	1.07	1.18	0.89	1.83	−1.71	−0.153	O=C(O)C1=Cc2ccccc2N2C[N+]3(CCN(c4cc5c(cc4F)c(=O)c(C(=O)O)cn5C4CC4)CC3)N=C12.[Cl-] [Compound 8]
0.97	−0.11	0.79	1.62	−1.66	0.98	1.75	0.81	1.86	−1.91	−0.479	CCn1cc(C(=O)O)c(=O)c2cc(F)c(N3CC[N+]4(CN5C(C)=CC(C)=C(C(=O)O)C5=N4)C(C)C3)c(F)c21.[Cl-] (stereo not drawn) [Compound 9]
1.28	0.79	0.71	1.16	−0.91	1.22	2.53	0.70	1.27	−1.04	–	CCn1cc(C(=O)O)c(=O)c2cnc(N3CC[N+]4(CC3)CN3C(C)=CC(C)=C(C(=O)O)C3=N4)nc21.[Cl-] [Compound 10]
1.06	−0.54	0.84	1.59	−1.50	1.08	1.51	0.84	1.72	−1.59	−0.398	CCn1cc(C(=O)O)c(=O)c2cc(F)c(N3CC[N+]4(CC3)CN3C(C)=CC(C)=C(C(=O)O)C3=N4)nc21.[Cl-] [Compound 11]
1.00	−0.38	0.82	1.63	−1.63	1.00	1.97	0.78	1.75	−1.75	−0.272	CCn1cc(C(=O)O)c(=O)c2cc(F)c(N3CC[N+]4(CC3)CN3C(C)=CC(C)=C(C(=O)O)C3=N4)cc21.[Cl-] [Compound 12]
0.92	−0.64	0.83	1.82	−1.97	0.88	1.74	0.82	2.18	−2.47	−0.408	COc1c(N2CC[N+]3(CN4C(C)=CC(C)=C(C(=O)O)C4=N3)C(C)C2)c(F)cc2c(=O)c(C(=O)O)cn(C3CC3)c12.[Cl-] (stereo not drawn) [Compound 13]
0.86	−1.79	0.96	2.29	−2.66	0.86	1.32	0.88	2.45	−2.84	−0.261	CC1=CC(C)=C(C(=O)O)C2=N[N+]3(CN12)C(C)CN(c1c(F)c(N)c2c(=O)c(C(=O)O)cn(C4CC4)c2c1F)CC3C.[Cl-] (stereo not drawn) [Compound 14]

SMILES	C 0 [1]	PC1 [1]	mRM [1]	R M ^0 [1]	b [1]	C 0 [2]	PC1 [2]	mRM [2]	R M ^0 [2]	b [2]	logk [3]
O=C(O)c1cn(C2CC2)c2cc(N3CCNCC3)c(F)cc2c1=O [Compound 22, ciprofloxacin, reference compound]	1.61	−5.04	1.41	2.04	−1.27	1.30	−3.88	1.62	2.79	−2.15	–
